From patent US20160221948A1, “NITROGEN-CONTAINING SATURATED HETEROCYCLIC COMPOUND” (SUMITOMO CHEMICAL COMPANY, LIMITED, priority 2013, published 2016) come the findings set out here.

The structures appear in SMILES notation.

In this assay the target is human SSTR4 (Homo sapiens, UniProt P31391). Description: Evaluation of agonist activities using human SSTR4-stably expressing cells (aequorin luminescence). More on the design: expressed in transfected cells; host or cells: HEK293. In kind it is cell-based. The note with it: for SSTR4 agonist activity compared with other compounds: Tables 25 to 27; for EC50: luminescence signal, 1 μmol/L somatostatin taken as 100%. On the procedure:
Evaluation of Agonist Activities Using Cells that stably expressing human-derived SSTR4 (human SSTR4-stably expressing cells)
(1) Human SSTR4-Stably Expressing Cells
Human SSTR4-stably expressing cells were prepared, and cultured. Specifically, HEK293 cells, human kidney-derived cells, were used as host cells. By introducing pcDNA3.1 (cat. No. V79020, invitrogen, Carlsbad, Calif., USA) to which human SSTR gene was inserted into HEK293 cells, human SSTR4-stably expressing cell line was obtained. For selection, G418 (cat. No. 16513-84, Nacalai tesque, Japan) was used.
As the culture medium, D-MEM medium (cat. No. 11995, GIBCO, USA), containing 10% FBS and 200 μg/mL G418, was used, the culture was performed in a 225 cm^2 flask (cat. No. 11-006-010, Iwaki, Japan).
At about 80% confluence, the cells were harvested by treating with 20-fold diluted 0.25% Trypsin-EDTA (cat. No. 35554-64, Nacalai, tesque, Japan). The harvested cells were prepared at a reaction medium composed of Hanks Buffer (cat. No. 14065-056, invitrogen, Carlsbad, Calif., USA)/20 mM Hepes (cat. No. 15630-080, invitrogen, Carlsbad, Calif., USA), and 0.1% BSA (cat. No. A7906, Sigma Aldrich, USA) to 70000 cells/mL. Gα16 and apoaequorin were transiently introduced to the harvested cells, and the cells were seeded to a 384 well plate (cat. No. 781090, Greiner, Germany) at about 2000 cells/30 μL/well. On the next day of cell seeding, Coelenterazine H (cat. No. S2011, Promega, USA) was added to each well (10 μL/well) to make a final concentration of 0.5 μmol/L, and the plate was centrifuged. Then, the plate was left at room temperature for 4 hours in shaded state.
(2) Preparation of Test Compounds
DMSO solution of each test compound having 1000-fold larger concentration than the final concentration was prepared. The DMSO solutions were made to have 10-fold concentration than the final concentration with Hanks/20 mmol/L Hepes/0.1% BSA.
(3) Evaluation of Agonist Activity
For detection of luminescence signal due to SSTR4-stimulation, FDSS7000 (manufactured by Hamamatsu Photonics K.K.) was used. To plates having cells and the luminescence substrate, solutions of test compounds were added, then each luminescence signal was measured for 90 seconds, and each relative luminescence unit (RLU) was calculated. Based on luminescence signal from the wells to which a 1 μmol/L somatostatin solution was added taken as 100%, agonist activity of each test compound was evaluated.

A word on the EC50: it is the concentration needed to bring the measured effect to its halfway point. The low end stands for greater potency, the high end for weaker potency.

Chain of human SSTR4 (P31391 whole entry): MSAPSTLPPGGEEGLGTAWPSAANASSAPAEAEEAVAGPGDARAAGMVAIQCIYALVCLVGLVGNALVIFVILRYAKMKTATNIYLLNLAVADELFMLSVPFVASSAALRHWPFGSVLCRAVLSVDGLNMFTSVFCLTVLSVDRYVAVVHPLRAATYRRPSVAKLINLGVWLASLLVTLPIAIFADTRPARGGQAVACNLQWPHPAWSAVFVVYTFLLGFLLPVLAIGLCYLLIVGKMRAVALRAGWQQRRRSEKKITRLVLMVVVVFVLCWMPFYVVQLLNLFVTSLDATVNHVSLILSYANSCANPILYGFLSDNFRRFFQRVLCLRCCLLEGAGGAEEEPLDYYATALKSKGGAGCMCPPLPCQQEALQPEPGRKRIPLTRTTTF

Regarding `C[C@@H]1CC[C@H](C(=O)NC(C)(C)c2cccc3ccccc23)CN1C` (relative stereo) [Example 81], the “SSTR4 agonist activity compared with other compounds” value is on record as “stronger SSTR4 agonist activity” and the 50% effective concentration (EC50) came to 3.4 nM.

In turn, `C[C@@H]1CC[C@@H](C(=O)NC(C)(C)c2cccc3ccccc23)CN1C` (relative stereo) [Example 82] registered an EC50 of 1.1 nM.

As for `C[C@@H]1[C@H](C(=O)NC(C)(C)c2cccc3ccccc23)CCCN1C` (relative stereo) [Example 84], it took 19.8 nM to reach a half-maximal effect (EC50).

`C[C@@H]1[C@@H](C(=O)NC(C)(C)c2cccc3ccccc23)CCCN1C` (relative stereo) [Example 85]: the “SSTR4 agonist activity compared with other compounds” value is listed as “stronger SSTR4 agonist activity” and the midpoint of the response, the EC50, lay at 1.5 nM.

Turning to `Cc1c(Cl)cccc1C(C)(C)NC(=O)[C@@H]1CC[C@H](C)N(C)C1` (relative stereo) [Example 87], the EC50 was found to be 9.4 nM.

On to `Cc1cccc(C(C)(C)NC(=O)[C@@H]2CC[C@H](C)N(C)C2)c1Cl` (relative stereo) [Example 88], for which a half-maximal effect (EC50) was put at 7.5 nM.

In turn, `CC[C@@H]1CC[C@@H](C(=O)NC(C)(C)c2cccc3ccccc23)CN1C` (relative stereo) [Example 89] gave an EC50 of 11.2 nM.

`CC[C@@H]1CC[C@H](C(=O)NC(C)(C)c2cccc3ccccc23)CN1C` (relative stereo) [Example 90]: the “SSTR4 agonist activity compared with other compounds” value is listed as “stronger SSTR4 agonist activity” and the EC50 is 3.1 nM.

The molecule `C[C@@H]1CC[C@@H](C(=O)NC(C)(C)c2cccc(Cl)c2Cl)CN1C` (relative stereo) [Example 95] returned an EC50 of 7.8 nM.

On to `C[C@@H]1CC[C@H](C(=O)NC(C)(C)c2cccc(Cl)c2Cl)CN1C` (relative stereo) [Example 96], for which the concentration for a half-maximal effect (EC50) is 11.7 nM.

In turn, `CC[C@@H]1CC[C@@H](C(=O)NC(C)(C)c2cccc(Cl)c2Cl)CN1C` (relative stereo) [Example 99] showed an EC50 greater than 100 nM.

Regarding `COC[C@@H]1CC[C@@H](C(=O)NC(C)(C)c2cccc3ccccc23)CN1C` (relative stereo) [Example 104], the EC50 came to 81.4 nM.

Turning to `COC[C@@H]1CC[C@H](C(=O)NC(C)(C)c2cccc3ccccc23)CN1C` (relative stereo) [Example 105], the 50% effective concentration (EC50) was greater than 100 nM.

Regarding `CN1CC[C@@H](c2ccccc2)[C@H](C(=O)NC(C)(C)c2cccc(Cl)c2Cl)C1` (relative stereo) [Example 106], the EC50 amounted to 2 nM.

The molecule `COc1ccccc1C(C)(C)NC(=O)[C@@H]1CN(C)CC[C@@H]1c1ccccc1` (relative stereo) [Example 107] yielded an EC50 greater than 100 nM.

For `COc1ccccc1C(C)(C)NC(=O)[C@@H]1CN(C)CC[C@H]1c1ccccc1` (relative stereo) [Example 108], the “SSTR4 agonist activity compared with other compounds” value is reported as “stronger SSTR4 agonist activity” and it took 2.2 nM to reach a half-maximal effect (EC50).

With `CN1CCC[C@H](C(=O)NC(C)(C)c2ccccc2F)C1` [Example 1, (3S)—N-[2-(2-fluorophenyl)propane-2-yl]-1-methylpiperidine-3-carboxyamide], the midpoint of the response, the EC50, lay at 62.7 nM.

In turn, `CN1CCCC(C(=O)NC(c2cccc3ccccc23)C(F)(F)F)C1` (stereo not drawn) [Example 3] returned an EC50 of 12.6 nM.

As for `CN1CCCC(C(=O)NC2(c3cccc4ccccc34)CC(F)(F)C2)C1` (stereo not drawn) [Example 4], the half-maximal effective concentration (EC50) was 343 nM.

For the molecule `Cc1cccc(C2(NC(=O)C3CCCN(C)C3)CC2)c1C` (stereo not drawn) [Example 5, N-[1-(2,3-dimethylphenyl)cyclopropyl]-1-methylpiperidine-3-carboxamide], the response was half-maximal at 34.1 nM (EC50).

In turn, `Cc1ccc(C(C)(C)NC(=O)C2CCCN(C)C2)cc1C` (stereo not drawn) [Example 6] yielded a 50% effective concentration (EC50) of 14.2 nM.

`Cc1cccc(C(C)(C)NC(=O)C2CCCN(C)C2)c1C` (stereo not drawn) [Example 8] gave an EC50 of 8.9 nM.

On to `CN1CCCC(C(=O)NC2(c3cc(Cl)cc(Cl)c3)CCOCC2)C1` (stereo not drawn) [Example 9, N-[4-(3,5-dichlorophenyl)tetrahydro-2H-pyran-4-yl]-1-methylpiperidine-3-carboxamide], for which the half-maximal effective concentration (EC50) is 43.3 nM.

In turn, `CN1CCCC(C(=O)NC(C)(C)c2ccc(Cl)c(Cl)c2)C1` (stereo not drawn) [Example 10] showed a concentration giving a half-maximal response (EC50) of 24.2 nM.

`Cc1cc(Cl)cc(C(C)(C)NC(=O)C2CCCN(C)C2)c1` (stereo not drawn) [Example 11] returned an EC50 of 8.4 nM.

The molecule `Cc1cc(Cl)ccc1C(C)(C)NC(=O)C1CCCN(C)C1` (stereo not drawn) [Example 12, N-[2-(4-chloro-2-methylphenyl)propane-2-yl]-1-methylpiperidine-3-carboxamide] returned a concentration for a half-maximal effect (EC50) of 9.7 nM.

On to `Cc1cccc(C(C)(C)NC(=O)C2CCCN(C)C2)c1Cl` (stereo not drawn) [Example 13], for which the “SSTR4 agonist activity compared with other compounds” value is “stronger SSTR4 agonist activity” and the 50% effective concentration (EC50) stood at 3.7 nM.

For `CN1CCC[C@H](C(=O)NC(C)(C)c2cccc(Cl)c2Cl)C1` [Example 19, (3S)—N-[2-(2,3-dichlorophenyl)propane-2-yl]-1-methylpiperidine-3-carboxamide], the “SSTR4 agonist activity compared with other compounds” value is “stronger SSTR4 agonist activity” and the EC50 came to 1.8 nM.

With `CN1CCC[C@H](C(=O)NC(C)(C)c2ccc(Cl)c(Cl)c2)C1` [Example 22], the EC50 was 10.9 nM.

Turning to `Cc1cccc(C(C)(C)NC(=O)[C@H]2CCCN(C)C2)c1C` [Example 23, (3S)—N-[2-(2,3-dimethylphenyl)propane-2-yl]-1-methylpiperidine-3-carboxamide], a half-maximal response (EC50) required 7.4 nM.

On to `Cc1cc(C)cc(C(C)(C)NC(=O)[C@H]2CCCN(C)C2)c1` [Example 25], for which the midpoint of the response, the EC50, lay at 15.9 nM.

As to `Cc1cccc(C(C)(C)NC(=O)[C@H]2CCCN(C)C2)c1Cl` [Example 26, (3S)—N-[2-(2-chloro-3-methylphenyl)propane-2-yl]-1-methylpiperidine-3-carboxamide], the “SSTR4 agonist activity compared with other compounds” value was “stronger SSTR4 agonist activity” and the EC50 turned out to be 2.2 nM.

The molecule `Cc1cc(Cl)ccc1C(C)(C)NC(=O)[C@H]1CCCN(C)C1` [Example 28] displayed a concentration giving a half-maximal response (EC50) of 12.2 nM.

On to `Cc1cc(Cl)cc(C(C)(C)NC(=O)[C@H]2CCCN(C)C2)c1` [Example 29, (3S)—N-[2-(3-chloro-5-methylphenyl)propane-2-yl]-1-methylpiperidine-3-carboxamide], for which the concentration for a half-maximal effect (EC50) worked out at 5.3 nM.

For `COc1cc(Cl)ccc1C(C)(C)NC(=O)[C@H]1CCCN(C)C1` [Example 30, (3S)—N-[2-(4-chloro-2-methoxylphenyl)propane-2-yl]-1-methylpiperidine-3-carboxamide], the “SSTR4 agonist activity compared with other compounds” value was “stronger SSTR4 agonist activity” and a half-maximal response (EC50) required 1.5 nM.

In the case of `CCc1cc(Cl)ccc1C(C)(C)NC(=O)[C@H]1CCCN(C)C1` [Example 31, (3S)—N-[2-(4-chloro-2-ethylphenyl)propane-2-yl]-1-methylpiperidine-3-carboxamide], the “SSTR4 agonist activity compared with other compounds” value is on record as “stronger SSTR4 agonist activity” and the midpoint of the response, the EC50, lay at 1.4 nM.

On to `CCc1ccc(C(C)(C)NC(=O)[C@H]2CCCN(C)C2)c(CC)c1` [Example 32, (3S)—N-[2-(2,4-diethylphenyl)propane-2-yl]-1-methylpiperidine-3-carboxamide], for which it took 4 nM to reach a half-maximal effect (EC50).

With `CC(C)c1cc(Cl)ccc1C(C)(C)NC(=O)[C@H]1CCCN(C)C1` [Example 33], the concentration for a half-maximal effect (EC50) was greater than 100 nM.

As for `CC(C)Cc1cc(Cl)ccc1C(C)(C)NC(=O)[C@H]1CCCN(C)C1` [Example 34], the EC50 is greater than 100 nM.

Turning to `Cc1ccc(C(C)(C)NC(=O)[C@H]2CCCN(C)C2)c(C)c1` [Example 35, (3S)—N-[2-(2,4-dimethylphenyl)propane-2-yl]-1-methylpiperidine-3-carboxamide], the concentration for a half-maximal effect (EC50) worked out at 3.3 nM.

With `CN1CCC[C@H](C(=O)NC(C)(C)c2ccc(Cl)cc2-c2ccccc2)C1` [Example 36], the EC50 was greater than 100 nM.

As for `Cc1ccc(C(C)(C)NC(=O)[C@H]2CCCN(C)C2)c(Cl)c1` [Example 37, (3S)—N-[2-(2-chloro-4-methylphenyl)propane-2-yl]-1-methylpiperidine-3-carboxamide], the “SSTR4 agonist activity compared with other compounds” value is reported as “stronger SSTR4 agonist activity” and the EC50 was determined as 2.5 nM.

On to `Cc1ccc(Cl)c(C(C)(C)NC(=O)[C@H]2CCCN(C)C2)c1` [Example 38, (3S)—N-[2-(2-chloro-5-methylphenyl)propane-2-yl]-1-methylpiperidine-3-carboxamide], for which the half-maximal effective concentration (EC50) is 5 nM.

Molecule `CN1CCC[C@H](C(=O)NC(C)(C)c2ccccc2)C1` [Example 39] returned a concentration for a half-maximal effect (EC50) greater than 100 nM.
